The values that follow come from BindingDB's records for doi:10.7270/Q2CN728N (Nmmlsc, 2008).

One test concerns the target T1, Bcl-2-related protein A1 (Homo sapiens, UniProt Q16548).
T1 sequence (Q16548 whole entry): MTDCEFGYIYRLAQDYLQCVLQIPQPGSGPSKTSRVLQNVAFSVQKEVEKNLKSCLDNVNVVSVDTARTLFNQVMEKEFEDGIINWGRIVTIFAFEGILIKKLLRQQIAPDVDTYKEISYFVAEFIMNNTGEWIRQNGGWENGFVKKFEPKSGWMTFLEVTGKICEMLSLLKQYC
Put plainly: Bfl-1/Bim complex disruptors – biochemical, multiplexed, bead-based flow cytometry, dose response (AID 1320). The settings on record: inactive by the depositor's call; pH 7.4; 4 °C.
`O=C(Nc1ccc(N2CCOCC2)cc1)Nc1ccc2nc(-c3ccco3)c(-c3ccco3)nc2c1` [N-(2,3-di-2-furyl-6-quinoxalinyl)-N'-[4-(4-morpholinyl)phenyl]urea] gave a half-maximal effective concentration (EC50) of 19.5 µM.
The same measure, in the same setting: to `CCOc1ccc(-n2cc(-c3ccc(OC)c(OC)c3)[nH]c2=S)cc1` belongs 0.68 µM.
The same measure, in the same setting: to `COc1ccc(/C=C/C(=O)c2cc(Br)ccc(=O)c2O)cc1` [MLS000702099] belongs 14 µM.
Compound `CCN(CC)c1ccc(-c2nn3c(-c4ccccc4OC)nnc3s2)cc1` came in with an EC50 of 40.8 µM. Against the preceding compound, the EC50 is about 2.9-fold higher.
On the same count and under the same terms, to `COc1ccc(N2C(=O)C(Cl)=C(Oc3cccc(OC)c3)C2=O)cc1` [3-chloro-4-(3-methoxyphenoxy)-1-(4-methoxyphenyl)-1H-pyrrole-2,5-dione] belongs 0.68 µM; to `CN(C)c1ncc(C2=C(Cl)C(=O)C(N3CCCC3)=C(Cl)C2=O)s1`, 0.04 µM; to `CNc1ccc(Br)cc(C(=O)/C=C/c2cc(OC)ccc2OC)c1=O` [SMR000115626], 15 µM.
Still for that read-out and setting: to `CCOC(=O)c1ccc(/N=c2/ssnc2Cl)cc1` belongs 37.5 µM; to `CCCC(=O)OCCNc1cc(Sc2nccn2C)c2nonc2c1[N+](=O)[O-]` [MLS000584441], 18.1 µM; to `CNc1ccc(Br)cc(C(=O)/C=C/c2ccc(OC)cc2)c1=O` [SMR000229850], 15 µM.
On the same count and under the same terms, to `Cc1ccc(/C=C/C(=O)c2ccccc(=O)c2O)c(C)c1` [3-[3-(2,4-dimethylphenyl)acryloyl]-2-hydroxy-2,4,6-cycloheptatrien-1-one] belongs 51.1 µM; to `COc1ccc(OC)c(-n2c(S)nnc2-c2ccc(C)cc2)c1` [SMR000155418], 3.05 µM; to `CN1CCN(C2=C(Cl)C(=O)C(c3cnc(N4CCCCC4)s3)=C(Cl)C2=O)CC1`, 0.01 µM.
In turn, `O=C1C(=Cc2ccco2)NC(=S)N1c1ccccc1` [(5E)-5-(furan-2-ylmethylidene)-3-phenyl-2-sulfanylideneimidazolidin-4-one] came in with an EC50 of 14.8 µM.
Still for that read-out and setting: to `CNc1ccc(Br)cc(C(=O)/C=C/c2cccc(OC)c2)c1=O` [4-bromo-2-[3-(3-methoxyphenyl)acryloyl]-7-(methylamino)-2,4,6-cycloheptatrien-1-one] belongs 17.5 µM; to `Cc1cccc(OCC(=O)NCC(=O)NN=Cc2cc(Br)ccc2OCc2ccccc2)c1` [N-[(5-bromanyl-2-phenylmethoxy-phenyl)methylideneamino]-2-[2-(3-methylphenoxy)ethanoylamino]ethanamide], 4.63 µM.
Same read-out and setting: to `O=C(Cn1c2ccccc2c(=O)c2ccccc21)N/N=C/c1ccc(N2CCCC2)c([N+](=O)[O-])c1` [N'-[(1E)-(3-nitro-4-pyrrolidin-1-ylphenyl)methylene]-2-(9-oxoacridin-10(9H)-yl)acetohydrazide] belongs 41.1 µM; to `Nc1ccc(C2=Nc3cccc4cccc(c34)N2)cc1` [SMR000175908], 16.1 µM.
Same read-out and setting: to `CCOC(=O)c1c(NC(C)=O)sc2c(O)c(Br)cc(Br)c12` belongs 17.8 µM; to `N#Cc1ccc(/N=c2/ssnc2Cl)cc1` [SMR000130044], 67.5 µM.
`CNC(=O)c1c(N)sc2c1CCCCC2` [SMR000111700]: the concentration for a half-maximal effect (EC50) is 4.09 µM. Compared with the last compound, the EC50 is about 17-fold lower.
In the case of `CCOC(=O)C(=Cc1cccc(O)c1)c1nc2sc(C)c(C)c2c(=O)[nH]1` [MLS000393989], the concentration for a half-maximal effect (EC50) was found to be 9.56 µM.
Same read-out and setting: to `CCN1C(=O)/C(=C\C=C2/C=CC=CN2CC)SC1=S` [SMR000225150] belongs 4.01 µM; to `Cc1c(/N=C2\C=CC(=O)c3ccccc32)c(=O)n(-c2ccccc2)n1C` [1,5-dimethyl-4-[(4-oxo-1-naphthalenylidene)amino]-2-phenyl-3-pyrazolone], 53.5 µM.
Same read-out and setting: to `Cc1ccc(/C=C2/NC(=O)N(Cc3ccc(Br)cc3)C2=O)o1` belongs 5.22 µM; to `Cc1ccc(-c2ccc(/C=C3\SC(N4CCOCC4)=NC3=O)o2)cc1` [(5Z)-5-[[5-(4-methylphenyl)-2-furanyl]methylidene]-2-(4-morpholinyl)-4-thiazolone], 20 µM; to `S=c1[nH]cc(-c2ccccc2)n1-c1ccccc1Cl` [MLS000417182], 2.23 µM.
On to `O=C(Nc1nnc(COc2ccc(Cl)cc2)s1)c1ccco1` [N-[5-[(4-chloranylphenoxy)methyl]-1,3,4-thiadiazol-2-yl]furan-2-carboxamide], for which it took 8.07 µM to reach a half-maximal effect (EC50).

The test is the same for the next values; noted with them: pH 7.4; 4 °C.
Consider `CCN(CC)C(=O)COC(=O)c1cc(-c2ccco2)nc2ccccc12` [SMR000377201], for which a half-maximal effect (EC50) was put at 1.03 µM.
`Fc1ccc(C2=Nc3cccc4cccc(c34)N2)cc1` [MLS000687139] had an EC50 of 7.63 µM.
Compound `Cc1ccc(/C=C/C(=O)Nc2ccc([N+](=O)[O-])c(NC(=O)/C=C/c3ccc(C)o3)c2)o1` [MLS000578867] showed an EC50 of 0.83 µM. This EC50 lies about 9.2-fold lower than the previous one.
On the same count and under the same terms, to `COc1cc(C2Nc3cccc4cccc(c34)N2)cc(OC)c1O` [4-(2,3-dihydro-1H-perimidin-2-yl)-2,6-dimethoxyphenol] belongs 1.73 µM; to `CNCc1ccccc1Sc1ccc(O)c(O)c1` [SMR000230497], 31.7 µM.
For the compound `CNc1ccc(Br)cc(C(=O)/C=C/c2cccc(OC)c2OC)c1=O` [4-bromanyl-2-[(E)-3-(2,3-dimethoxyphenyl)prop-2-enoyl]-7-(methylamino)cyclohepta-2,4,6-trien-1-one], the concentration giving a half-maximal response (EC50) stood at 8.38 µM.
The same measure, in the same setting: to `O=C(c1ccccc1)c1[nH]n(-c2ccccc2)c2c(O)n(-c3ccccc3)c(=O)c1-2` [3-benzoyl-1,5-diphenyl-3a,6a-dihydropyrrolo[3,4-c]pyrazole-4,6-dione] belongs 1.36 µM; to `CN(C)c1ccc(C=C2C(=O)NC(=O)NC2=O)cc1[N+](=O)[O-]` [5-[[4-(dimethylamino)-3-nitrophenyl]methylidene]-1,3-diazinane-2,4,6-trione], 4.67 µM.
The same measure, in the same setting: to `O=[N+]([O-])c1c(NCCO)cc(Sc2nc3ccccc3s2)c2nonc12` [MLS000520993] belongs 0.12 µM; to `CC1=CC(=O)c2c(O)ccc(O)c2C1=O` [MLS001048870], 2.87 µM.
As for `Cc1cccc(N2C(=S)C(C#N)C(=O)NC2c2cccs2)c1` (configuration not stated), a half-maximal effect (EC50) was put at 18.3 µM.
On the same count and under the same terms, to `Cc1cc2nn(-c3cccc4ccccc34)nc2cc1N` [SMR000076237] belongs 1.34 µM; to `CCN(CC)c1ccc(Nc2nc(N3CCOCC3)c3ccccc3n2)cc1` [4-N,4-N-diethyl-1-N-(4-morpholin-4-ylquinazolin-2-yl)benzene-1,4-diamine], 9 µM; to `CN1CCc2cccc3c2[C@@H]1Cc1ccc(O)c(O)c1-3`, 15.1 µM.
On the same count and under the same terms, to `CCC(/C=C1\Sc2ccc(OC)cc2N1CCO)=C\c1sc2ccc(OC)cc2[n+]1CCO` belongs 20.3 µM.
The same measure, in the same setting: to `Cc1ccc(-c2nc(N3CCOCC3)s[n+]2-c2ccccc2)cc1` [SMR000225370] belongs 0.02 µM; to `O=C(Nc1ccccc1)c1ccc2nc(-c3ccco3)c(-c3ccco3)nc2c1` [2,3-di-2-furyl-N-phenyl-6-quinoxalinecarboxamide], 7.56 µM; to `O=[N+]([O-])c1c(NCCCO)cc(Sc2nc3ccccc3s2)c2nonc12` [MLS000520994], 0.61 µM.
The compound `Cc1ccc(NC2=C(NC(=O)c3ccccc3)C(=O)c3ccccc3C2=O)cc1Cl` [MLS000392290] registered an EC50 of 2.31 µM.
On the same count and under the same terms, to `O=C(Nc1cccc(C(F)(F)F)c1)c1ccc2nc(-c3ccco3)c(-c3ccco3)nc2c1` [SMR000142217] belongs 2.96 µM; to `Cc1nnc(Sc2cc(NCCO)c([N+](=O)[O-])c3nonc23)s1` [2-[[7-[(5-methyl-1,3,4-thiadiazol-2-yl)thio]-4-nitro-2,1,3-benzoxadiazol-5-yl]amino]ethanol], 0.52 µM.
On the same count and under the same terms, to `COc1ccc(-n2cc(-c3ccc(OC)c(OC)c3)[nH]c2=S)cc1` belongs 1.58 µM; to `O=C(NC1=C(Nc2ccc(Cl)cc2)C(=O)c2ccccc2C1=O)c1ccccc1`, 2.91 µM.
On the same count and under the same terms, to `COc1ccccc1NC1=C(NC(C)=O)C(=O)c2ccccc2C1=O` [N-[3-(2-methoxyanilino)-1,4-dioxonaphthalen-2-yl]acetamide] belongs 1.41 µM; to `Oc1ccc(NCc2ccccc2OCc2ccccc2)cc1` [SMR000231540], 1.12 µM; to `Cc1ccc(/C=C/C2=Cc3c(sc(NC(=O)CSc4nnc(N)[nH]4)c3C#N)C(C)(C)C2)o1` [2-[(5-azanyl-1H-1,2,4-triazol-3-yl)sulfanyl]-N-[3-cyano-7,7-dimethyl-5-[(E)-2-(5-methylfuran-2-yl)ethenyl]-6H-1-benzothiophen-2-yl]ethanamide], 4.19 µM.
`O=c1[nH]c(O)c(Cc2ccc(-c3cc(Cl)ccc3[N+](=O)[O-])o2)c(=O)[nH]1` gave an EC50 of 1.24 µM.
Consider `CC(=O)OCCNc1cc(Sc2nc3ccccc3[nH]2)c2nonc2c1[N+](=O)[O-]` [2-{[7-(1H-benzimidazol-2-ylthio)-4-nitro-2,1,3-benzoxadiazol-5-yl]amino}ethyl acetate], for which the EC50 was 5.6 µM.
Still for that read-out and setting: to `CCOC(=O)C1=C(Cc2ccc(OC)cc2)C(=O)c2ccccc2C1=O` [SMR000136995] belongs 5.04 µM; to `Cc1cccc(C(=O)/N=c2\c(C#N)cc3c(=O)n4cccc(C)c4nc3n2Cc2ccco2)c1` [N-[3-cyano-1-(furan-2-ylmethyl)-10-methyl-5-oxodipyrido[3,4-c:1',2'-f]pyrimidin-2-ylidene]-3-methylbenzamide], 9.69 µM.
Regarding `CCC(=O)OCCNc1cc(Sc2nc3ccccc3[nH]2)c2nonc2c1[N+](=O)[O-]` [SMR000207032], a half-maximal response (EC50) required 1.63 µM.
Take `Fc1ccc(C=C2CCCC3C2=NC(=S)NC3c2ccc(F)cc2)cc1` (configuration not stated) [(8E)-4-(4-fluorophenyl)-8-[(4-fluorophenyl)methylidene]-1,3,4,5,6,7-hexahydroquinazoline-2-thione]: the 50% effective concentration (EC50) was found to be 6.65 µM.
Still for that read-out and setting: to `COc1cc(/N=c2/ssnc2Cl)c(OC)cc1Cl` [SMR000130043] belongs 6.53 µM.
For the compound `Cc1ccc(-c2nc3c(c(=O)[nH]c(=O)n3Cc3ccccc3)n2C)o1` [7-methyl-8-(5-methyl-2-furanyl)-3-(phenylmethyl)purine-2,6-dione], the midpoint of the response, the EC50, lay at 1.94 µM.
